The text below walks through data of ChEMBL document CHEMBL5380860, “Design, Synthesis, and Antitumor Activity of Potent and Selective EGFR L858R/T790M Inhibitors and Identification of a Combination Therapy to Overcome Acquired Resistance in Models of Non-small-cell Lung Cancer” (J Med Chem, 2023).

Data set [1] in a line: Cytotoxicity against human A-431 cells harboring wild type EGFR assessed as reduction in cell viability measured after 72 hrs by MTT assay. Type of data set: toxicity, cell-based. (In general: Tetrazolium dyes change colour on reduction, which living cells bring about.)
For data set [2], the target named is T1, Tyrosine-protein kinase Tec (Homo sapiens, UniProt P42680).
T1 sequence (P42680 whole entry): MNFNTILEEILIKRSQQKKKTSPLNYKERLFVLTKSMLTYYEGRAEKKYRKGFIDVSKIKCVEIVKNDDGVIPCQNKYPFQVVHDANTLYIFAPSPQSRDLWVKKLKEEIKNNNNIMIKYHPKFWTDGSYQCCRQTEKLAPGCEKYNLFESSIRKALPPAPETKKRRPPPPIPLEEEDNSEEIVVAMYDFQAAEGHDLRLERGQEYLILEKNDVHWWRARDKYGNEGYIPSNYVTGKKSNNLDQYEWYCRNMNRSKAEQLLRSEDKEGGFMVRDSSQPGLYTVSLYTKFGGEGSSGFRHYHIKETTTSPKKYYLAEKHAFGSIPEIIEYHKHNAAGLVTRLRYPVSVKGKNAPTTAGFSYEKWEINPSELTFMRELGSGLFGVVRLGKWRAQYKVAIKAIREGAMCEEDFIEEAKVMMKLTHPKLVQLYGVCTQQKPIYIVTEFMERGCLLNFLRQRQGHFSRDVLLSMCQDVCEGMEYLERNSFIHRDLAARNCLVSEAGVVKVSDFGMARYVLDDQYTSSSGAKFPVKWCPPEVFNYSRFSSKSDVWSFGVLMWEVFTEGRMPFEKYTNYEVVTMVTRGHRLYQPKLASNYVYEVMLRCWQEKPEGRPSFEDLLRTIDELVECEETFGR
Nature of the data set: Inhibition of human wild type partial length TEC kinase (L341 to D620 residues) expressed in bacterial expression system by KINOMEscan analysis.

For data set [3], the target named is Epidermal growth factor receptor (Homo sapiens, UniProt P00533, EX19DEL). Briefly: Inhibition of human EGFR exon del19 mutant by KINOMEscan analysis.
For data set [4], the system named is NCI-H1975. Briefly: Antiproliferative activity against N-(3-((6-Fluoro-2-((4-(4-methylpiperazin-1-yl)phenyl)amino)quinazolin-4-yl)amino)phenyl)acrylamide-resistant human NCI-H1975 cells assessed as reduction in cell viability at compound:Bosutinib concentration ratio of 3:1 to 1:3 measured after 72 hrs in presence of ACK1 inhibitor, Bosutinib by MTT assay. Type of data set: functional, cell-based.

In data set [5] the test system is Epidermal growth factor receptor (Homo sapiens), P00533 [UNDEFINED MUTATION]. Briefly: Inhibition of EGFR exon del19 mutant in human HCC827 cells assessed as inhibition of EGF-induced EGFR phosphorylation at Tyr1068 residue at 1 uM pretreated with compound for 4 hrs followed by incubation with EGF for 10 mins by western blot analysis. The conditions noted are these: time 250.0 min. Type of data set: cell-based. (In general: In western blotting, separated proteins are transferred to a membrane and probed.)

Data set [6] has as its system NCI-H1975. Briefly: Antitumor activity against human NCI-H1975 cells xenografted in ip dosed BALB/c mouse assessed as decrease in tumor volume. In kind it is functional, organism-based. The conditions noted are these: dose 5-20 mg/kg/day. A general note: In xenograft studies the graft and the host belong to different species.
Data set [7] can be described thus: Toxicity in BALB/c mouse xenografted with N-(3-((6-Fluoro-2-((4-(4-methylpiperazin-1-yl)phenyl)amino)quinazolin-4-yl)amino)phenyl)acrylamide-resistant human NCI-H1975 cells assessed as changes in liver morphological changes at 20 mg/kg/day, ip in presence of ACK1 inhibitor, dasatinib by hematoxylin-eosin staining based analysis. Type of data set: organism-based. As to conditions: in vivo.

The test system of the next data set is A-431. Briefly: Inhibition of clonogenicity in human A-431 cells assessed as inhibition of colony formation at 0.1 to 10 uM incubated for 14 days by crystal violet staining based analysis. Type of data set: toxicity, cell-based. The conditions noted are these: a-431, 336 h, dose 0.1-10 µM, time 14 day.
In data set [8] the test system is Mus musculus. Nature of the data set: In vivo inhibition of EGFR L858R/T790M mutant in N-(3-((6-Fluoro-2-((4-(4-methylpiperazin-1-yl)phenyl)amino)quinazolin-4-yl)amino)phenyl)acrylamide-resistant human NCI-H1975 cells xenografted BALB/c mouse assessed as inhibition of EGFR phosphorylation at Tyr1068 residue in tumor at 20 mg/kg/day, ip in presence of ACK1 inhibitor, dasatinib by immunoblot analysis. Type of data set: functional, organism-based.

The subject of data set [9] is Mus musculus. Briefly: In vivo inhibition of EGFR L858R/T790M mutant in NCI-H1975 cells xenografted BALB/c mouse assessed as inhibition of EGFR phosphorylation at Tyr1068 residue in tumor at 20 mg/kg/day, ip by immunoblot analysis. Type of data set: functional, organism-based.
The test system of data set [10] is NCI-H1975. Briefly: Antitumor activity against N-(3-((6-Fluoro-2-((4-(4-methylpiperazin-1-yl)phenyl)amino)quinazolin-4-yl)amino)phenyl)acrylamide-resistant human NCI-H1975 cells xenografted in BALB/c mouse assessed as inhibition of tumor growth at 20 mg/kg/day, ip. In kind it is functional, organism-based.
For data set [11], the system named is HCC827. Nature of the data set: Induction of apoptosis in human HCC827 cells assessed as induction of caspase-3 cleavage pretreated with compound for 4 hrs followed by incubation with EGF for 10 mins by western blot analysis. The conditions noted are these: dose 0.1-10 µM, time 250.0 min. In kind it is functional, cell-based.
For data set [12], the system named is Epidermal growth factor receptor (Homo sapiens), P00533 [L858R,T790M]. Nature of the data set: Inhibition of EGFR L858R/T790M mutant in N-(3-((6-Fluoro-2-((4-(4-methylpiperazin-1-yl)phenyl)amino)quinazolin-4-yl)amino)phenyl)acrylamide-resistant human NCI-H1975 cells assessed as inhibition of EGF-induced AKT phosphorylation at Ser473 residue pretreated with compound and ACK1 inhibitor, Dasatinib for 4 hrs followed by incubation with EGF for 10 mins by western blot analysis. In kind it is cell-based. The conditions noted are these: time 250.0 min.

For data set [13], the system named is A549. Nature of the data set: Induction of apoptosis in human A549 cells assessed as induction of PARP cleavage at 0.1 to 10 uM pretreated with compound for 4 hrs followed by incubation with EGF for 10 mins by western blot analysis. As to conditions: a549, 4.167 h, dose 0.1-10 µM, time 250 min. Type of data set: toxicity, cell-based.
Data set [14] concerns Mus musculus. Nature of the data set: In vivo inhibition of EGFR L858R/T790M mutant in NCI-H1975 cells xenografted BALB/c mouse assessed as inhibition of ERK-1/2 phosphorylation in tumor at 20 mg/kg/day, ip by immunoblot analysis. In kind it is functional, organism-based.
Data set [15] deals with Epidermal growth factor receptor (Homo sapiens), P00533 [L858R]. Briefly: Inhibition of human partial length EGFR (R669 to V1011 residues) L858R mutant expressed in bacterial expression system assessed as residual activity at 1 uM by KINOMEscan analysis.
The test system of data set [16] is A549. Briefly: Induction of apoptosis in human A549 cells assessed as induction of caspase-3 cleavage at 0.1 to 10 uM pretreated with compound for 4 hrs followed by incubation with EGF for 10 mins by western blot analysis. As to conditions: a549, 4.167 h, dose 0.1-10 µM, time 250 min. In kind it is toxicity, cell-based.
Data set [17] concerns the target Epidermal growth factor receptor (Homo sapiens, UniProt P00533). Nature of the data set: Inhibition of wild type EGFR in human A549 cells assessed as inhibition of EGF-induced EGFR phosphorylation at Tyr1068 residue at 10 uM pretreated with compound for 4 hrs followed by incubation with EGF for 10 mins by western blot analysis. As to conditions: a549, 4.167 h, time 250 min. In kind it is toxicity, cell-based.

Data set [18] has as its system NCI-H1975. Briefly: Inhibition of clonogenicity in human NCI-H1975 cells assessed as inhibition of colony formation incubated for 14 days by crystal violet staining based analysis. In kind it is functional, cell-based. The conditions noted are these: dose 0.1-10 µM, time 14.0 day.
Data set [19] relates to HCC827. Briefly: Induction of apoptosis in human HCC827 cells assessed as increase in caspase-3/7 activity at 0.1 to 10 uM incubated for 24 hrs by Caspase-Glo reagent based luminescence analysis. Type of data set: functional, cell-based. The conditions noted are these: dose 0.1-10 µM.

The source made the active and inactive calls. The rule behind the calls is not given here.

For orientation: IC50 means the concentration that inhibits the measured activity by half. As for `C=CC(=O)Nc1cccc(Nc2nc(Nc3ccc(N4CCN(C)CC4)cc3)nc3ccc(F)cc23)c1`, the IC50 at 72 h in data set [1] was determined as 2.49 µM. In addition, the values for the IC50 in data set [2] and in data set [3] were 0.518 µM and 0.0013 µM, respectively. The result in the data set on NCI-H1975 [4] and in the data set with HCC827 [19] was Active. In addition, the inhibition entry (in [5]; in the data set with Mus musculus [8]; in the data set on Mus musculus [9]; in data set [12]; with Mus musculus [14]) was “Active” throughout. Further, the Activity entry was “Dose-Dependent Effect” with NCI-H1975 [6]; “Non-Toxic” in [7]; “Non-Toxic” with A-431; “Dose-Dependent Effect” in the data set with HCC827 [11]; “Non-Toxic” with A549 [13]; 1% in data set [15]. Further, the Activity result in the data set with A549 [16] was “Non-Toxic”. The outcome in the data set on NCI-H1975 [10] was inactive. Besides, in data set [17], the “inhibition (INH)” value was “Not Active”. In the data set on NCI-H1975 [18], the inhibition entry is “Dose-Dependent Effect”.
